In article PMC5517562, “Design and discovery of novel monastrol-1,3,5-triazines as potent anti-breast cancer agent via attenuating Epidermal Growth Factor Receptor tyrosine kinase” (Scientific Reports, 2017):

Columns and labels:
EGFR-TK = target: T1, EGFR-TK (Homo sapiens, UniProt P00533); assay: EGFR tyrosine kinase inhibitory activity (Kinase-Glo Plus luminescence); format: biochemical; details: at 10 µM; read-out: Percent of Inhibition, EGFR tyrosine kinase
T1 construct: 0.2 mg/mL Poly (Glu, Tyr) substrate, 10 mM ATP and EGFR
Method: Kinase activity was determined using Kinase-Glo Plus luminescence kinase assay kit, by quantitating the amount of ATP remaining in the solution of kinase reaction. The luminescent signal is correlated with the residual amount present and it was inversely related with kinase activity. The tested compounds were diluted to 100 mM in 10% DMSO, then […] of the dilution was added to a 50 mL reaction. All of the enzymatic reactions were performed at 30 °C for 40 min, 50 mL of reaction mixture contains 10 mM MgCl2, 40 mM Tris, pH 7.4, 0.1 mg/mL BSA, 0.2 mg/mL Poly (Glu, Tyr) substrate, 10 mM ATP and EGFR. Incubate the plate for 5 min at r.t. then add 50 mL of Kinase-GloPlus Luminescence kinase assay to each reaction. ADP-Glo assay kit is the protein kinase assays used to determine IC50 values in which ADP generation was measured as it leads to an increase in luminescence signal. The reaction mixture was incubated in a 96-well plate at 30 °C for 30 min, after the incubation period add 25 mL of ADP-Glo reagent to terminate the assay. Shake the 96-well plate for 30 min at ambient temperature then incubate it, then add 50 mL of kinase detection reagent. Read the 96-well plate using the ADP-Glo Luminescence reader. All the assay components were added to the blank control except the substrate. By removing the blank control value you can obtain the corrected activity for each protein kinase target.

[1] = test system: HL-60 (Human promyelocytic leukemia); assay: MTT in vitro cytotoxicity assay, HL-60; format: cell-based; details: Homo sapiens
Method: (§1) The synthesized compounds were evaluated for in-vitro cytotoxic activity against various cell lines such as HeLa (cervical cancer), MCF-7 (breast cancer), HL-60 (Human promyelocytic leukemia), HepG2 (Hepatocellular carcinoma) and MCF 12A (normal epithelial cell) by the MTT assay method. […] The relationship between surviving fraction and drug concentration was plotted to obtain the survival curve of all the cancer cell lines HeLa, MCF-7, HL-60 and HepG2. The response parameter calculated was the IC50 values, which responds to the concentration required for 50% inhibition of cell viability. The in-vitro cytotoxic activity of the synthesized compounds is summarized Table 3.
(§2) The target compounds were subjected to in vitro cytotoxicity bioassay. In vitro cytotoxicity was determined using a standard MTT assay with protocol appropriate for the individual test system[29]–[31]. The four human cancer cell lines HeLa, MCF-7, HL-60, HepG2 and MCF-12A were cultured in the MEM medium supplemented with 10% FBS, 1% glutamine and […] gentamicin sulfate in a CO2 incubator in a humidified atmosphere of 5% CO2 and 95% air. The test compounds were prepared prior to the experiment by dissolving in 0.1% DMSO and diluted with medium. The cells were then exposed to different concentrations of drugs ([…]) in the volume of […]. Cells in the control wells received the same volume of medium containing 0.1% DMSO. After 24 h, the medium was removed and cell cultures were incubated with […] MTT reagent (1 mg/ml) for 5 h at 37 °C. The known number of cells ([…]) was incubated in a 5% CO2 incubator at 37 °C in the presence of different concentrations of test compounds. After 48 h of drug incubation, the MTT solution was added in each well and absorbance was recorded at 540 nm by an ELISA reader. The experiment was performed in triplicate. Cell survival was calculated as the percentage of MTT inhibition as % growth inhibition = 100 − (mean OD of individual test Group/Mean OD of each Control Group) × 100.

[2] = test system: p-EGFR and p-Akt levels of MCF-7; assay: Western blot of EGFR activation and downstream signalling in MCF-7; format: cell-based, human; details: immunoblotting, concentration-dependent
Excerpt: However, despite of excellent inhibitory activity of 7l against the EGFR-TK, its mechanism behind this phenomena has not been elucidate till now, thus, in this part of the study, we are interested in exploring the effect of compound 7l on the activation and downstream signalling pathway of the EGFR. Towards this, the effect of 7l has been determined on the expression of p-EGFR and EGFR, p-Akt and Akt levels of MCF-7 by immunoblotting experiments. Results as presented in Fig. 14 confirmed the effect of 7l on the expression of p-EGFR and p-Akt. […] Results clearly indicate the ability of 7l to inhibit the phosphorylation of EGFR which in turn decreases Akt (the downstream target protein of p-EGFR).
After incubation with the test compound, the cells were harvested and washed with PBS, and then lysed in lysis buffer. After centrifugation at 12,000 × g for 5 min, the supernatant was collected as total protein. The concentration of the protein was determined by a protein assay kit. The protein samples were separated by 10% SDS–PAGE and subsequently electro-transferred onto a PVDF (Millipore, Bedford, MA, USA). […] The antibodies were purchased from Cell Signaling Technology (MA, USA) Thus, the expression of p-EGFR, EGFR, p-Akt (pS473) and Akt were visualized by enhanced chemiluminescence (ECL) (Thermofischer Scientific Inc. USA) kit and band intensity was analyzed by image j software.

MCF-7 (breast cancer) = assay: MTT in vitro cytotoxicity assay, MCF-7; format: cell-based, human; details: Homo sapiens, MCF7
Method: as §1, §2

T1 sequence (P00533 25-1210): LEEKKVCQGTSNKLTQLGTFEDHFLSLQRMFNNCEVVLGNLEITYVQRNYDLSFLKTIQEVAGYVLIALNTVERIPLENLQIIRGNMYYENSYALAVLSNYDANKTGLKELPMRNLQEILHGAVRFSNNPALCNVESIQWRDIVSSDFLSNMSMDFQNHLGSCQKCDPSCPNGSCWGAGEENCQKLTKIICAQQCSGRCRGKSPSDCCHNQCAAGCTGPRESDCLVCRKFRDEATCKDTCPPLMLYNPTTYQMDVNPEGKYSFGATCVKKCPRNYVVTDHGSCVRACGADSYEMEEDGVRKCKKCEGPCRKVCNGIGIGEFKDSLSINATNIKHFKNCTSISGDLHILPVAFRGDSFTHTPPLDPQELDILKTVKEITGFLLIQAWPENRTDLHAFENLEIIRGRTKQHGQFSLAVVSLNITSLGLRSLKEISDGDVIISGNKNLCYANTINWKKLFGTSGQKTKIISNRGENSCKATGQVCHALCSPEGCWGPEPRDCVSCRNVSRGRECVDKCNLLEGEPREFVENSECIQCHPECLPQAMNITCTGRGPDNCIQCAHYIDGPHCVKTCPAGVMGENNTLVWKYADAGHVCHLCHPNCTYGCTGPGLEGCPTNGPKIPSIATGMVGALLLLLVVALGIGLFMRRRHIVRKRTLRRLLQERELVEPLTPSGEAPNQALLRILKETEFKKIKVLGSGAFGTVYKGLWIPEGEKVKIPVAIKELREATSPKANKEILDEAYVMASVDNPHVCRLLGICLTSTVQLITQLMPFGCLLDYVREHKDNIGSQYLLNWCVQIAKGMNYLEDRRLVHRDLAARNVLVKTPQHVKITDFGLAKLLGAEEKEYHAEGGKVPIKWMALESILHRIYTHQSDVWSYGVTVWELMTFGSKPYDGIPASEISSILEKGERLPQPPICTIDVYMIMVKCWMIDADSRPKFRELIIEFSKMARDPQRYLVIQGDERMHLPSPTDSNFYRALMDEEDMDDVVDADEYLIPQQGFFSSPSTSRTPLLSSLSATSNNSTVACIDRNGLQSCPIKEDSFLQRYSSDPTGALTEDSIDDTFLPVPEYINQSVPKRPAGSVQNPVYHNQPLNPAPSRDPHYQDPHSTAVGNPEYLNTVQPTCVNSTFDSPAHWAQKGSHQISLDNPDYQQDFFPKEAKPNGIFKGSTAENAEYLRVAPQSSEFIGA

In the case of `CCOC(=O)C1=C(C)N(c2nc(Nc3cccc(F)c3)nc(Nc3cccc(F)c3)n2)C(=S)NC1c1ccc(F)cc1` (centres unmarked) [7l, Ethyl 1-(4,6-bis((3-fluorophenyl)amino)-1,3,5-triazin-2-yl)-4-(4-fluorophenyl)-6-methyl-2-thioxo-1,2,3,4-tetrahydropyrimidine-5-carboxylate], the inhibition at 10 µM (EGFR-TK) is reported as 96.4%, the IC50 [1] is reported as 23.1 ± 0.36 µM and the “Level of p-Akt” value [2] is reported as “significantly reduced”. The “Level of p-EGFR” value [2] was “significantly reduced” and the IC50 (MCF-7 (breast cancer)) was 41.5 ± 0.31 µM.
